pIC50: −log10 of the molar value. “Also recorded” adds a separate entry of the source. Like-named read-outs stand apart in the source and are kept apart here.
Columns and labels:
Format in all cases: biochemical
Caspase-5 = target: T1, Caspase-5 (Homo sapiens, UniProt P51878); assay: Caspase-5 inhibitor screening assay (BioVision kit, WEHD-AFC); conditions: for inhibition at 10 µM: read-out: % Inhibition at 10 uM Casp5; for inhibition at 100 µM: read-out: % Inhibition at 100 uM Casp5
T1 construct: mixing the compounds with the respective active caspases; purchased BioVision K155-100
T1 sequence (P51878 137-327 limits assumed): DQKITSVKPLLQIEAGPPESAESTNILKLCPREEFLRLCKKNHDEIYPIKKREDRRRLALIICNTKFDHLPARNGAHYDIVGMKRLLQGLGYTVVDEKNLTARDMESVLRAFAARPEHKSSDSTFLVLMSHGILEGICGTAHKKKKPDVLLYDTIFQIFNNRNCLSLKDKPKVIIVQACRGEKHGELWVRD
T1 sequence (P51878 347-434 limits assumed): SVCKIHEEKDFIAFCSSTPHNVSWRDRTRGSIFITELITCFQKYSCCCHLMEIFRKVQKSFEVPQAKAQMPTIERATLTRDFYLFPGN
Procedure, shortened: (§1)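 Fluorometric read-out of free AFC released from the caspase-specific synthetic substrate. IC50 from concentration series, sometimes narrower.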

Caspase-3 = target: T2, Caspase-3 (Homo sapiens, UniProt P42574); assay: Caspase-3 inhibitor screening assay (BioVision kit, DEVD-AFC); conditions: for inhibition at 10 µM: read-out: % Inhibition at 10 uM Casp3; for inhibition at 100 µM: read-out: % Inhibition at 100 uM Casp3
T2 construct: mixing the compounds with the respective active caspases; purchased BioVision K153-100
T2 sequence (P42574 29-175 limits assumed): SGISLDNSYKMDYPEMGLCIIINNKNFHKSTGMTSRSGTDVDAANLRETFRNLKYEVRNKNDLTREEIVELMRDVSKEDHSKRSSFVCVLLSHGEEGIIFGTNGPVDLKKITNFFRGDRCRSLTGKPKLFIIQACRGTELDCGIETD
T2 sequence (P42574 176-277 limits assumed): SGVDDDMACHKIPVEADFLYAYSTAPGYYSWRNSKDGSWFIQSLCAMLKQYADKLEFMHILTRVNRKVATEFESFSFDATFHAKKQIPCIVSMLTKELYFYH
Procedure, shortened: as §1

Caspase-8 = target: T3, Caspase-8 (Homo sapiens, UniProt Q14790); assay: Caspase-8 inhibitor screening assay (BioVision kit, IETD-AFC); conditions: for inhibition at 10 µM: read-out: % Inhibition at 10 uM Casp8; for inhibition at 100 µM: read-out: % Inhibition at 100 uM Casp8
T3 construct: mixing the compounds with the respective active caspases; purchased BioVision K158-100
T3 sequence (Q14790 217-374 limits assumed): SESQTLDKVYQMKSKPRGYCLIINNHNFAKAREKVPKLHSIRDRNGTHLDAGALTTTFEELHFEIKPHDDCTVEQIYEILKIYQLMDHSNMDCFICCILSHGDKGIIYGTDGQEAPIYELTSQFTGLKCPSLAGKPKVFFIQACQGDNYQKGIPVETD
T3 sequence (Q14790 385-479 limits assumed): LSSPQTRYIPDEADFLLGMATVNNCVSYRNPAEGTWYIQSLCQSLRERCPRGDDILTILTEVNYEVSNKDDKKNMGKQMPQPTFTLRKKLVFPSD
Procedure, shortened: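 Each caspase cleaved its own AFC-labelled peptide substrate, and released AFC was read by fluorescence. % inhibition came from RFU against an uninhibited control.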

Caspase-1 = target: T4, Caspase-1 (Homo sapiens, UniProt P29466); assay: Caspase-1 inhibitor screening assay (BioVision kit, YVAD-AFC); conditions: for inhibition at 10 µM: read-out: % Inhibition at 10 uM Casp1; for inhibition at 100 µM: read-out: % Inhibition at 100 uM Casp1
T4 construct: mixing the compounds with the respective active caspases; purchased BioVision K151-100
T4 sequence (P29466 120-297 limits assumed): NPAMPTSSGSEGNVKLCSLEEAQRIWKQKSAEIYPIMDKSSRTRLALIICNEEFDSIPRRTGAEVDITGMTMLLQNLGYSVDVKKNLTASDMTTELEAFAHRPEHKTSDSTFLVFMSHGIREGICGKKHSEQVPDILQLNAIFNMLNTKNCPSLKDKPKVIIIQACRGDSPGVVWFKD
T4 sequence (P29466 317-404 limits assumed): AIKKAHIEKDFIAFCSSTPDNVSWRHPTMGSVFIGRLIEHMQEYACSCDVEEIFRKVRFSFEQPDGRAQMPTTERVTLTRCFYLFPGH
Procedure, shortened: as §1

Caspases 1 through 10 = assay: Caspase-1 to Caspase-10 inhibitor screening, profile across the panel
Experimental: The efficacy of an array of compounds as an inhibitor of the activity of Caspases 1 through 10 were assessed by using the respective Caspase Inhibitor Drug Screening Kits (Caspase-1 Catalog #: K151-100, Caspase-2 Catalog #: K152-100, Caspase-3 Catalog #: K153-100, Caspase-4 Catalog #: K154-100, Caspase-5 Catalog #: K155-100, Caspase-6 Catalog #: K156-100, Caspase-7 Catalog #: K157-100, Caspase-8 Catalog #: K158-100, Caspase-9 Catalog #: K159-100, Caspase-10 Catalog #: K160-100, BioVision) following the instructions of the manufacturer. […] Active caspases cleaved their respective synthetic substrates to release free AFC, which was then quantified by fluorometry.
Briefly, the compounds were first tested at 2 concentrations (10 uM and 100 uM final) to determine if there is a hit. […] Each condition was tested in duplicates. […] For some samples, a smaller range of concentrations was tested depending on the % Inhibition results at 10 uM and 100 uM. Results were summarized in Tables 2, 3, and 4 herein after. Table 2 represents the IC50 values (uM) of the test compounds as inhibitors of the activity of the various caspases.
(*) RFU (no inhibitor control)—RFU (compound at a specific concentration)
RFU (no inhibitor control)

[1] = read-out: potency (IC50) against caspase-1

| SMILES | inhibition at 10 µM (Caspase-5) [%] | inhibition at 100 µM (Caspase-5) [%] | pIC50 (Caspase-5; read-out: potency (IC50) against caspase-5) | inhibition at 10 µM (Caspase-3) [%] | inhibition at 100 µM (Caspase-3) [%] | pIC50 (Caspase-3; read-out: IC50 Casp3) | inhibition at 10 µM (Caspase-8) [%] | inhibition at 100 µM (Caspase-8) [%] | pIC50 (Caspase-8; read-out: IC50 Casp8) | inhibition at 10 µM (Caspase-1) [%] | inhibition at 100 µM (Caspase-1) [%] | pIC50 (Caspase-1; read-out: IC50 Casp1) | pIC50 (Caspase-1; [1]) | pIC50 (Caspase-3; read-out: potency (IC50) against caspase-3) | pIC50 (Caspase-8; read-out: potency (IC50) against caspase-8) | pIC50 (Caspase-5; read-out: IC50 Casp5) | inhibition profile across caspases, in words (Caspases 1 through 10) |
| --- | --- | --- | --- | --- | --- | --- | --- | --- | --- | --- | --- | --- | --- | --- | --- | --- | --- |
| CC(C)(C)[C@H](NC(=O)c1ccc2ccccc2n1)C(=O)N1CCC[C@@H]1C(=O)N[C@H](/C=C/S(C)(=O)=O)CC(=O)O [Compound 6, 2-Quinoline carbonyl-t-Leu-pro-Asp methyl vinyl sulfone] | 86 | 99 | 5.63 | 1 | 1 | < 4.00 | 0 | 22 | < 4.00 | 98 | 100 | 7.40 | 7.38 | – | – | – | inhibits selectively caspase-1; also recorded: very strong inhibitory activity towards pro-inflammatory Caspases |
| CCOC(=O)/C=C/[C@H](CC(=O)O)NC(=O)[C@H]1CCCN1C(=O)[C@@H](NC(=O)c1ccc(N)c(Cl)c1)C(C)(C)C [Compound 116, (4-amino-3-chlorobenzene carbonyl)-t-Leu-Pro-Asp Ethyl vinyl ester] | – | – | – | – | – | 4.48 | – | – | 6.22 | – | – | 8.00 | – | – | – | 6.89 | stronger inhibitory activity towards pro-inflammatory caspases Caspase-1 and -5 |
| CCOC(=O)/C=C/[C@H](CC(=O)O)NC(=O)[C@H]1CCCN1C(=O)[C@@H](NC(=O)c1ccc2ccccc2n1)C(C)(C)C [Compound 118, 2-Quinoline carbonyl-t-Leu-Pro-Asp Ethyl Vinyl Ester] | 88 | 99 | – | 0 | 15 | < 4.00 | 36 | 89 | 4.67 | 100 | 100 | 7.52 | – | – | – | 5.71 | very strong inhibitory activity towards pro-inflammatory Caspases |

Further lines, with some results ahead:

| inhibition at 10 µM (Caspase-5) [%] | inhibition at 100 µM (Caspase-5) [%] | pIC50 (Caspase-5; read-out: potency (IC50) against caspase-5) | inhibition at 10 µM (Caspase-3) [%] | inhibition at 100 µM (Caspase-3) [%] | pIC50 (Caspase-3; read-out: IC50 Casp3) | inhibition at 10 µM (Caspase-8) [%] | inhibition at 100 µM (Caspase-8) [%] | pIC50 (Caspase-8; read-out: IC50 Casp8) | inhibition at 10 µM (Caspase-1) [%] | inhibition at 100 µM (Caspase-1) [%] | pIC50 (Caspase-1; read-out: IC50 Casp1) | pIC50 (Caspase-1; [1]) | pIC50 (Caspase-3; read-out: potency (IC50) against caspase-3) | pIC50 (Caspase-8; read-out: potency (IC50) against caspase-8) | pIC50 (Caspase-5; read-out: IC50 Casp5) | SMILES | inhibition profile across caspases, in words (Caspases 1 through 10) |
| --- | --- | --- | --- | --- | --- | --- | --- | --- | --- | --- | --- | --- | --- | --- | --- | --- | --- |
| 41 | 41 | – | 99 | 100 | 7.52 | 77 | 79 | 5.58 | 84 | 96 | – | 5.98 | 7.57 | 5.58 | – | CCOC(=O)/C=C/[C@H](CC(=O)O)NC(=O)[C@@H](NC(=O)[C@@H](NC(=O)[C@H](CC(=O)O)NC(=O)OCc1ccccc1)c1ccccc1)C(C)C [Compound 105, Z-Asp-Phg-Val-Asp Ethyl Vinyl Ester] | high inhibitory activity towards the effector (executioner) Caspases: Caspase-3 and -7 |
| – | – | – | – | – | 6.24 | – | – | 6.72 | – | – | 6.11 | – | – | – | 5.42 | CCOC(=O)/C=C/[C@H](CC(=O)O)NC(=O)[C@@H](NC(=O)[C@H](CCC(=O)O)NC(=O)[C@@H](NC(=O)OCc1ccccc1)C(C)C)C(C)CC (stereo partly drawn) [Compound 124, Z-Val-Glu-Ile-Asp-Ethyl Vinyl ester] | pan-caspase inhibitor |

— patent publication US10975119B2, “Selective cysteine protease inhibitors and uses thereof” (Genesis Technologies Limited, priority 2011, dated 2021)
